These results are taken from PMC7915732, “Screening of Yeast Display Libraries of Enzymatically Treated Peptides to Discover Macrocyclic Peptide Ligands” (International Journal of Molecular Sciences, 2021).

The target in experiment [1] is T1, WW domains of YAP (WW-YAP) (Homo sapiens, UniProt P46937).
T1 construct: which affords the expression of the WW domains of YAP (AAs 165–271); made in house; host or cells: Rosetta E. coli
Nature of the experiment: Static binding assay on peptide-Toyopearl resin, Langmuir isotherm, WW-YAP. To be noted: binding capacity (mg protein/mL resin), PBS pH 7.4, 1 h room temperature, Langmuir fit, average of three independent replicates ± one standard error.
Description: (§1) The known WW-binding peptide sequence [sequence] […] Protein adsorption isotherms were generated by incubating the peptide-functionalized resin with soluble N-terminal YAP or WW-YAP (20 μg/mL–3 mg/mL).
(§2) The supernatants were collected and analyzed by UV spectrophotometry at 280 nm to measure the amount of unbound protein. The amount of protein adsorbed on the resin was determined via mass balance. The KD describing the binding affinity of the soluble protein to the peptide-functionalized resin was determined by fitting the adsorption data to a Langmuir isotherm:(2) q=qmax[C]/KD+[C] where q is the amount of protein adsorbed on the resin (mg protein/mL resin), [C] is the unbound concentration of protein at equilibrium (mg protein/mL solution), qmax is the maximum protein binding capacity (mg protein/mL resin), and KD is the dissociation constant (mg protein/mL solution). Equation (2) was independently fit to the data obtained from triplicate adsorption studies, and the fitted values of KD and qmax were averaged across the repeats.

In the next experiment the target is T2, N-terminal YAP (N-YAP) (Homo sapiens, UniProt P46937).
T2 construct: which affords the expression of N-terminal YAP (AAs 1–291); made in house; host or cells: Rosetta E. coli
Kind of experiment: Static binding assay on peptide-Toyopearl resin, Langmuir isotherm, N-terminal YAP. To be noted: binding capacity (mg protein/mL resin), PBS pH 7.4, 1 h room temperature, Langmuir fit, average of three independent replicates ± one standard error.

T1 sequence (P46937 165-271): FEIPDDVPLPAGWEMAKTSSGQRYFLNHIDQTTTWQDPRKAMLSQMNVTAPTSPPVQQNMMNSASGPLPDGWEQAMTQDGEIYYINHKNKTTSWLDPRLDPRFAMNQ
T2 sequence (P46937 1-291): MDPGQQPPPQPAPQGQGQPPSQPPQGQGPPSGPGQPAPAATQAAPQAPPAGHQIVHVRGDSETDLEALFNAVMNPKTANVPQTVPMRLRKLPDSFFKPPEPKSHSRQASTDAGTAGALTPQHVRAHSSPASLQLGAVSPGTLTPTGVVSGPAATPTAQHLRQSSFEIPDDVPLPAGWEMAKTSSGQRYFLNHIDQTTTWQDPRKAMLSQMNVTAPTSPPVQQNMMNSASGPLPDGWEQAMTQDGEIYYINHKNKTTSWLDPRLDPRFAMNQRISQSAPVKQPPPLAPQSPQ
Description for N-terminal YAP (N-YAP): as §1, §2

For RYSPPPPYSSHS [PTCH peptide], the “Qmax WW-YAP (resin)” value in experiment [1] worked out at 8.3 ± 0.27 mg/mL. In addition, the “Qmax N-YAP (resin)” value on N-terminal YAP (N-YAP) is reported as 4.11 ± 0.12 mg/mL.
